{
  "source": "patent US9198894B2",
  "about": "“Uses of 15-benzylidene-14-deoxy-11,12-didehydroandrographolide derivatives in the preparation of antineoplastic drugs” (Zhengzhou University, priority 2010, dated 2015)",
  "key": {"[1]": {"tested_on": "SGC-7901 human gastric cancer", "test": "Colony formation assay, SGC-7901", "format": "cell-based", "procedure": "(§1) 1) Cell lines: Cell lines of SGC-7901 human gastric cancer, A549 human lung adenocarcinoma and Hela human cervical carcinoma were purchased from the Type Culture Collection of the Chinese Academy of Sciences, Shanghai, China.\n(§2) 3) Method: Colony formation assay was used. The cells were trypsinized to generate a single-cell suspension and seeded in a 6-well plate at a density of 100 cells/well, then drug-containing medium was added to the well to make the final concentration of compound to 0, 1.25, 2.50, 5.00, 7.50, 10.00 μmol/L, respectively. The experiments were performed in duplicate, and the cells were cultured at 37 in a humidified atmosphere with 5% CO2. Terminate cell culture when the clones can be seen in the culture plate, then remove the culture medium, and wash twice with PBS, fix the cells with methanol (5 ml/well) for 15 min and stain the cells with hematoxylin-eosin stain. The number of clones which comprised more than 50 cells was counted under a TS100-F-PH microscope (Nikon Company, Japan). Calculate relative colony formation ratio (%) and the IC50 values. Relative colony formation ratio (%)=(colony number of drug-administration well/colony number of control well)×100%."}, "[2]": {"tested_on": "Hela human cervical carcinoma", "test": "Colony formation assay, Hela", "format": "cell-based", "details": "Hela", "procedure": "as §1, §2"}, "[3]": {"tested_on": "5637 human urinary bladder cancer cells", "test": "Wound healing (two-dimensional migration) assay, 5637", "format": "cell-based", "details": "5637, 10.00 μmol/l, 24 h (FIG. 1C)", "procedure": "(§3) 1) Cell lines: Cell lines of 5637 human bladder carcinoma, Eca-109 human esophageal carcinoma, HT29 human colon cancer, SGC-7901 human gastric cancer, A549 human lung adenocarcinoma and PC-3 human prostate carcinoma were purchased from the Type Culture Collection of the Chinese Academy of Sciences, Shanghai, China.\n(§4) 3) Methods: The cells were trypsinized to generate a single-cell suspension and seeded in 96-well plates (200 μl/well), and incubated with medium containing 10% fetal bovine serum at 37 in a humidified atmosphere with 5% CO2. Following a 24 h incubation, the cells were starved for an additional 12 h in low-serum media (1% FBS). The cultures of Eca-109, HT29, 5637, SGC-7901, A549 and PC-3 were then scratched away with a 200-μl plastic pipette tip and rinsed twice with PBS to remove wound-derived loose and dislodged cells. The cells were cultured in replaced medium without or with compounds at final concentrations of 0, 2.50, 5.00 and 10.00 μmol/L, respectively. At least seven randomly selected views along the scraped line in each well were photographed immediately and 24 h and 36 h after incubation using a digital camera at 50× magnification. The average scraped area in each well under each treatment condition was measured, and the percentage of inhibition against cell migration was calculated. % of inhibition=1−(A0−At)/(A′0−A′t)×100%, where, A0 and At are the areas of wound with compound treatment measured immediately and 24 or 36 h post-injury, respectively; A′0 and A′t are the areas of wound without compound treatment measured immediately and 24 or 36 h post-injury, respectively."}, "[4]": {"tested_on": "A549 human lung adenocarcinoma", "test": "Colony formation assay, A549", "format": "cell-based", "procedure": "as §1, §2"}, "[5]": {"tested_on": "SGC-7901 human gastric adenocarcinoma cells", "test": "Wound healing (two-dimensional migration) assay, SGC-7901", "format": "cell-based", "details": "SGC-7901, 10.00 μmol/l, 36 h (FIG. 1D)", "procedure": "as §3\nas §4, with “The cells were cultured in replaced medium without or with compounds at final concentrations of 0, 2.50, 5.00 and 10.00 μmol/L, respectively. At least seven randomly selected views along the scraped line in each well were photographed immediately and 24 h and 36 h after incubation using a digital camera at 50× magnification.” left out"}, "[6]": {"tested_on": "ECV304 human vascular endothelial cells", "test": "Two-dimensional migration of ECV304 (wound healing)", "format": "cell-based", "details": "10.00 μmol/L (FIG. 2A)"}, "IL-1β": {"tested_on": "IL-1β", "format": "in vivo, mouse", "details": "C57BL/6 mice, mean ± s, n = 5"}, "[7]": {"tested_on": "Eca-109 human esophageal carcinoma cells", "test": "Wound healing (two-dimensional migration) assay, Eca-109", "format": "cell-based", "details": "Eca-109, 10.00 μmol/l, 24 h (FIG. 1A)", "procedure": "as §3, §4"}, "[8]": {"tested_on": "B16-F10 mouse melanoma cells", "format": "in vivo", "details": "B16-F10, C57BL/6 mice; for Lung index / Nodule number (melanoma nodules in lungs): mean ± s, n = 5", "procedure": "1) Animals: A total of 20 C57BL/6 male mice of clean grade [Number of Animal License: SCXK (Xiang) 2009-0004], weighing 18-22 g, were purchased from Hunan Slca Jingda Experimental Animal Center Company, Ltd., China.\n2) Cells: B16-F10 mouse melanoma cells were purchased from Nanjing KeyGen Biotech. Co. Ltd., China.\n(§5) 4) Method: B16-F10 cells in logarithmic growth phase were trypsinized, then resuspended in RPMI1640 medium containing 10% fetal bovine serum and centrifuged at 1000 rpm for 5 min. The supernatant was removed and sterile PBS was added to prepare single-cell suspension (10^7/mL). The murine melanoma lung metastasis model was established in mice via caudal vein injection of B16-F10 cells (0.2 ml/mouse). Mice were randomly divided into 4 groups (n=5) according to body weight, and 24 h later they were administrated intragastrically (ig; 0.2 ml/10 g) once a day continuously for 24 d with vehicle (tumor control group), Cyc (30 mg/kg), compound 3 at 0.85 mmol/kg and 1.10 mmol/kg. Mice were weighed and blood was collected by removing the eyeball at 24 h after the last administration. Sacrificed the mice, removed the lung and counted the number of melanoma nodules in lungs of mice under an anatomical lens. Serum obtained after centrifugation at 3000 rpm for 20 min (3K30 refrigerated centrifuge, Sigma, USA) was conserved at −20° C. Levels of TNF-α and IL-1β in serum were measured by ELISA method, which were performed in accordance with the instructions of the kits.\nData were expressed as mean±SD and statistical analysis was performed by SPSS Statistics 17.0 using a one-way analysis of variance (ANOVA) followed by unpaired t-test. A value of P<0.05 was considered statistically significant. The inhibition ratio (IR %) of lung metastasis was calculated as follows: IR %=(Nc−Nt)/Nc×100%, where Nc is the average number of nodules in lung tissues of vehicle, and Nt is that of mice treated with drugs."}, "[9]": {"tested_on": "A549 human lung carcinoma cells", "test": "Wound healing (two-dimensional migration) assay, A549", "format": "cell-based", "details": "A549, 10.00 μmol/l, 36 h (FIG. 1E)", "procedure": "as §3, §4"}, "[10]": {"format": "in vivo, mouse", "details": "C57BL/6 mice, before vs 24 d after administration", "procedure": "as §5"}, "TNF-α": {"tested_on": "TNF-α", "format": "in vivo, mouse", "details": "C57BL/6 mice, mean ± s, n = 5"}, "[11]": {"details": "read-out: Inhibition against tumor cell colony formation IC50"}},
  "note": "Read-outs that look alike come from different tables or passages of the source. Marks after values point to notes of the source that are not given here.",
  "data": [
    {"smiles": "C=C1CCC2C(C)(CO)C(O)CCC2(C)C1C=CC1=CC(=Cc2ccc(Cl)cc2)OC1=O", "note": "(stereo not shown) [Compound 2, 15-p-chlorobenzylidene-14-deoxy-11,12-didehydro-andrographolide]", "values": [
      {"measurement": "Inhibition of colony formation compared with andrographolide", "setting": "[1]", "value": "remarkably stronger than that of andrographolide"},
      {"measurement": "IC50", "setting": "[1]; [11]", "value": 2.1, "unit": "µM"},
      {"measurement": "Inhibition of colony formation compared with andrographolide", "setting": "[2]", "value": "remarkably stronger than that of andrographolide"},
      {"measurement": "IC50", "setting": "[2]; [11]", "value": 1.38, "unit": "µM"},
      {"measurement": "Inhibitory effect on two-dimensional migration", "setting": "[3]", "value": "much stronger than that of other tumor cells"},
      {"measurement": "Inhibition of colony formation compared with andrographolide", "setting": "[4]", "value": "remarkably stronger than that of andrographolide"},
      {"measurement": "IC50", "setting": "[4]; [11]", "value": 1.42, "unit": "µM"},
      {"measurement": "Inhibitory effect on two-dimensional migration", "setting": "[5]", "value": "much stronger than that of other tumor cells"},
      {"measurement": "Inhibition of two-dimensional migration of ECV304", "setting": "[6]", "value": "the most significant one"}
    ]},
    {"smiles": "C=C1CCC2C(C)(COC(=O)c3cccnc3)C(OC(=O)c3cccnc3)CCC2(C)C1C=CC1=CC(=Cc2ccc(Cl)cc2)OC1=O", "note": "(stereo not shown) [Compound 3, 15-p-chlorobenzylidene-14-deoxy-11,12-didehydro-3,19-dinicotinate andrographolide]", "values": [
      {"measurement": "IL-1β in serum", "setting": "IL-1β; 0.85 mmol/kg ig 24 d", "value": "30.76 ± 3.25", "unit": "pg/mL"},
      {"measurement": "IL-1β in serum", "setting": "IL-1β; 1.10 mmol/kg ig 24 d", "value": "17.86 ± 3.41", "unit": "pg/mL"},
      {"measurement": "Inhibitory effect on two-dimensional migration", "setting": "[7]", "value": "much stronger than that of other tumor cells"},
      {"measurement": "IR (%) of lung metastasis", "setting": "[8]; 0.85 mmol/kg ig 24 d", "value": 58.04, "unit": "%"},
      {"measurement": "IR (%) of lung metastasis", "setting": "[8]; 0.85 mmol/kg ig 24 d, listed as compound 3", "value": 58.04, "unit": "%"},
      {"measurement": "Lung index", "setting": "[8]; 0.85 mmol/kg ig 24 d", "value": "6.19 ± 0.76", "unit": "mg/g"},
      {"measurement": "Nodule number (melanoma nodules in lungs)", "setting": "[8]; 0.85 mmol/kg ig 24 d", "value": "35.25 ± 14.45"},
      {"measurement": "IR (%) of lung metastasis", "setting": "[8]; 1.10 mmol/kg ig 24 d", "value": 65.18, "unit": "%"},
      {"measurement": "IR (%) of lung metastasis", "setting": "[8]; 1.10 mmol/kg ig 24 d, listed as compound 3", "value": 65.18, "unit": "%"},
      {"measurement": "Lung index", "setting": "[8]; 1.10 mmol/kg ig 24 d", "value": "6.39 ± 0.57", "unit": "mg/g"},
      {"measurement": "Nodule number (melanoma nodules in lungs)", "setting": "[8]; 1.10 mmol/kg ig 24 d", "value": "29.25 ± 881**^∇"},
      {"measurement": "Inhibitory effect on two-dimensional migration", "setting": "[9]", "value": "much stronger than that of other tumor cells"},
      {"measurement": "Average net increase in body weight", "setting": "[10]; 0.85 mmol/kg ig", "value": 1.64, "unit": "g"},
      {"measurement": "Average net increase in body weight", "setting": "[10]; 1.10 mmol/kg ig", "value": 2.00, "unit": "g"},
      {"measurement": "TNF-α in serum", "setting": "TNF-α; 0.85 mmol/kg ig 24 d", "value": "0.52 ± 5.90"},
      {"measurement": "TNF-α in serum", "setting": "TNF-α; 1.10 mmol/kg ig 24 d", "value": "11.11 ± 5.96"}
    ]}
  ]
}
